Bounds are passed on as bounds.

One series deals with T1, 5-HT2C (Homo sapiens, UniProt P28335).
T1 sequence (P28335 33-458): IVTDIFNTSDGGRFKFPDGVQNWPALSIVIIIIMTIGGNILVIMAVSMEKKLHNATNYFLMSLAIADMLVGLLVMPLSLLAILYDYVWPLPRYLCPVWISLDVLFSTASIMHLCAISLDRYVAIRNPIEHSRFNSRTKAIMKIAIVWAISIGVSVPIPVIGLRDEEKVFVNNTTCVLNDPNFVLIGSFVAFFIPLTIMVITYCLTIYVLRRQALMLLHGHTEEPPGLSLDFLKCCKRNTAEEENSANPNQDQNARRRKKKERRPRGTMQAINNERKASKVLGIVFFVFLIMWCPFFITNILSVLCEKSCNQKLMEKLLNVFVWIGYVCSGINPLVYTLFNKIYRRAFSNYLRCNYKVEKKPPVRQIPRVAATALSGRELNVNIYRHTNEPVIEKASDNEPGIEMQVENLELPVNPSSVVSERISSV
Kind of series: 5-HT2C competition binding assay with [^3H]mesulergine (NIMH PDSP). The text has this: (§1) We selected 6 and 9 for carbon-11 radiolabelling and PET imaging studies.

On the set-up of series [1]: method as in Hamprecht et al., 2007. To be noted: ref Hamprecht et al., 2007; cited from earlier work.
Series [2] concerns the target T2, 5-HT2A (Homo sapiens, UniProt P28223). Kind of series: competition binding assay (NIMH PDSP), 5-HT2A. To be noted: read-out: Binding affinity Ki, 5-HT2A.
In another series the target is 5-HT2B (Homo sapiens, UniProt P41595). Kind of series: competition binding assay (NIMH PDSP), 5-HT2B. To be noted: mean of three experiments ± SD, read-out: Binding affinity Ki, 5-HT2B.
The next series concerns the target 5-HT5–7. In words: competition binding assay (NIMH PDSP), 5-HT5–7. As to conditions: read-out: Binding affinity Ki, 5-HT5–7.
The next series has as its target D1-D5. Kind of series: competition binding assay (NIMH PDSP), dopamine D1-D5. To be noted: read-out: Binding affinity Ki, D1-D5.
In series [3] the target is T2, 5-HT2A. In words: primary binding, 5-HT2A.
Excerpt: as §1

Another series has as its target T3, 5-HT1A (Homo sapiens, UniProt P08908).
T3 sequence (P08908 1-422): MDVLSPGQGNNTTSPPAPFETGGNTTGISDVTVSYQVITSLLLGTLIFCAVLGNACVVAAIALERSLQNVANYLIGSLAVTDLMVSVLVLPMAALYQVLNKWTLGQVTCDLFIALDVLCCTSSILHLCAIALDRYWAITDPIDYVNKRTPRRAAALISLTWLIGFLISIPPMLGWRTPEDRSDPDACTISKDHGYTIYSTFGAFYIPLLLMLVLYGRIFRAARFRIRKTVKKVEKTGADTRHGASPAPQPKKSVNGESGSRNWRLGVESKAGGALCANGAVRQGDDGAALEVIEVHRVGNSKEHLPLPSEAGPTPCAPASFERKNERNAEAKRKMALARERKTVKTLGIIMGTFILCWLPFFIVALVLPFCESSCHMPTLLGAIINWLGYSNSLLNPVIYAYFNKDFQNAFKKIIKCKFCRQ
Kind of series: competition binding assay (NIMH PDSP), 5-HT1A. As to conditions: read-out: Binding affinity Ki, 5-HT1A.

For the next series, the target named is 5HT2AR. Set-up: method as in Finnema et al., 2014. To be noted: ref Finnema et al., 2014; cited from earlier work.
In another series the target is 5HT2CR. Set-up: method as in Finnema et al., 2014. As to conditions: ref Finnema et al., 2014; cited from earlier work.
The target in series [4] is 5-HT2CR. To be noted: no reference given; cited from earlier work.
Series [5] in a line: solubility in the injection form. Type of series: physicochemical. To be noted: 10% ethanol in saline. Here is the method: To test specific binding of [^11C]6 and [^11C]9 to the choroid plexus and hippocampus, an in vivo microPET blocking study was performed with 0.1 mg/kg SB-242084 30 min prior to injection, respectively. Unfortunately, due to the unexpected low solubility of SB-242084 in the injection form (10% ethanol in saline), the administered SB-242084 in soluble form to the monkeys was likely much less than the target 0.1 mg/kg. As a result, the uptake of [^11C]6 and [^11C]9 in the choroid plexus and hippocampus was still present.

In series [6] the test system is 5-HT2CR. Set-up: method as in Kim et al., 2017. As to conditions: rat brain; ref Kim et al., 2017; cited from earlier work.

T2 sequence (P28223 whole entry, species assumed): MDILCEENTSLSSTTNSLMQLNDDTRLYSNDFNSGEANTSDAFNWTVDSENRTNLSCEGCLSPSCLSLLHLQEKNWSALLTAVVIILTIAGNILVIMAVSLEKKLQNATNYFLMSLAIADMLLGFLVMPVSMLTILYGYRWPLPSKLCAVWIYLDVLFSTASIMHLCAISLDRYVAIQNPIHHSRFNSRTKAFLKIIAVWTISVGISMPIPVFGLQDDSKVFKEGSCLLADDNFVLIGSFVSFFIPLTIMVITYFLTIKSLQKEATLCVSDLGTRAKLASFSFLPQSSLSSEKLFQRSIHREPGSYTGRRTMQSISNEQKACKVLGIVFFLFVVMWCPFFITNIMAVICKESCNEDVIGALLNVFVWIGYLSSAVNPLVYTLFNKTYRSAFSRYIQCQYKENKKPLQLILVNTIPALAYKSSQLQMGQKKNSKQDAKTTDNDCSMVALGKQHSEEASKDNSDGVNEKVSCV
5-HT2B, sequence (P41595 whole entry, species assumed): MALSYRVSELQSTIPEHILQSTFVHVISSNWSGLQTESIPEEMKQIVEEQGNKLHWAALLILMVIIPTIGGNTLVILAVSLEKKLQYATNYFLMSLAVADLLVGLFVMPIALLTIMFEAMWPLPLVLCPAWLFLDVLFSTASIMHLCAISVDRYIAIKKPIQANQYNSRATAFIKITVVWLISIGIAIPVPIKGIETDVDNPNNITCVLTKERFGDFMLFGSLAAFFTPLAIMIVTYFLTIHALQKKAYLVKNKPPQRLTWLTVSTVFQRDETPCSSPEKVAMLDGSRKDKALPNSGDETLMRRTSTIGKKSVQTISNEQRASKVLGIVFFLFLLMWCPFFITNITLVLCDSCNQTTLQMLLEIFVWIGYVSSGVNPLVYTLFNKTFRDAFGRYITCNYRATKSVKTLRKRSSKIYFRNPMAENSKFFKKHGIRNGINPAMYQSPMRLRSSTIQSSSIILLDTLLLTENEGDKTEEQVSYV

In the case of `COc1ccc(N2Cc3cccc(Br)c3C2=O)cc1OCCN1CCC(C)CC1` [Compound 7], the Ki is 2.9 ± 0.7 nM at 5-HT2C (competition with [^3H]mesulergine, mean of three experiments ± SD, read-out: Binding affinity Ki, 5-HT2C); over 1000 nM on 5-HT2A [2]; 177 ± 75 nM on 5-HT2B; over 1000 nM at 5-HT5–7; over 1000 nM on D1-D5; over 1000 nM at 5-HT1A. Also, the “5-HT2C binding less than that for 9” value at 5-HT2C (relative to compound 9) was 2–3 times. Also, the “brain permeability as measured by brain to blood plasma ratio” value in [1] was “great”. For the same compound, on 5-HT2A [3], the “primary bindings at 5-HT2A” value is on record as under 50%.

Take `COc1cc(CCNCc2ccccc2O[11CH3])c(OC)cc1Br` [[^11C]Cimbi-36]: the Ki at 5HT2AR is 0.5 nM; on 5HT2CR it was 1.7 nM.

On to `Cc1cc2c(cc1Cl)N(C(=O)Nc1ccc(Oc3cccnc3C)nc1)CC2` [SB-242084], for which the Ki at 5-HT2CR [4] is 3.6 nM. Also, the “solubility in the injection form” value in series [5] was “low”.

As for `C[C@H](Cc1cccc([18F])c1)Oc1nc(N2CCNC[C@H]2C)ncc1F` [[^18F]4, [^18F]4-(3-Fluorophenethoxy)pyrimidine], the “ratios of uptake in regions of interest to cerebellum” value in the series on 5-HT2CR [6] is listed as “low to moderate”.

These data come from paper PMC8661056, “Synthesis and Evaluation of [^11C]7-Halogen-2-Phenyl Isoindolone Derivatives: Potential PET Radioligands for in vivo Imaging of 5-HT2C Receptors” (Frontiers in Neuroscience, 2021).
